Test results as given in patent US11458138B2 (Novartis AG, priority 2017, dated 2022).

Key:
LATS1 = LATS1 (Homo sapiens (Human), UniProt O95835); assay: LATS1 biochemical assay (Table 1A, Compound Examples 1-290; method in the earlier part)
[1] = tested on: YAP nuclear translocation in HaCaT cells; assay: YAP Translocation Assay (HaCaT Cells); type: cell-based, human; details: Homo sapiens, 24 hours
How it was run: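 HaCaT cells (20,000/well) in DMEM + 10% FBS were plated overnight at 37° C, then exposed to compound for 24 h at 37° C. Cells were fixed with PFA, permeabilized with 0.1% Triton/1.5% BSA and imaged by high-content imaging.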

[2] = tested on: Phospho-YAP (Ser127) in JHH-5 cells; assay: pYAP HTRF Assay (JHH-5 cells); type: cell-based; details: 2 hours
Protocol: Briefly, JHH-5 cells are suspended at 0.48×10^6 cells/ml in William's E medium without phenol-red (Thermo Fisher Scientific Gibco catalog number A1217601) supplemented with 10% (v/v) heat-inactivated fetal bovine serum (Thermo Fisher Scientific Gibco catalog number 16140071) and penicillin-streptomycin at 100 U/ml each (Thermo Fisher Scientific Gibco catalog number 15140122). Cells are dispensed into 384well clear bottom culture plates (50 ul/well, at 24000 cells per well, Greiner catalog number 781091), and incubated for 24 hours in a cell culture incubator at 37° C. Test compounds are transferred into culture plates containing JHH-5 cells using an Echo550 (Labcyte) acoustic dispenser (50 nl/well), followed by incubation for 2 hours at 37° C. Lysis buffer (part of CisBio kit catalog number 64YAPPEI) is added to the assay plates as a four-fold concentrate (corresponding to 16 ul/well) and incubated for 30 minutes at room temperature with agitation. Lysate is transferred from culture plates into white low-volume 384well assay plates (12 ul/well, Greiner catalog number 784075), followed by the addition of 3 ul/well of detection antibodies (part of CisBio kit catalog number 64YAPPEI: 1:40 dilution of each pYAP d2 antibody and pYAP cryptate antibody stocks). The plates are sealed and incubated overnight (18 hours) at room temperature protected from light. Plates are read on an EnVision plate reader (Perkin Elmer) at emission wavelengths of 665 nm and 620 nm. The HTRF signal ratio x per well is calculated as [x=Signal(665 nm)/Signal(620 nm)×10000] as specified in the manufacturer's protocol.

[3] = tested on: Phospho-YAP (SER127) in HaCaT cells; assay: pYAP HTRF Assay (HaCaT Cells); type: cell-based, human; details: Homo sapiens, 2 hours
Protocol: The pYAP HTRF assay was performed using the Phospho-YAP (SER127) 10000 test kit (CisBio, catalogue number 64YAPPEH) according to manufacturer's instructions. Briefly, HaCaT cells were suspended at 1.1×10^6 cells/mL in DMEM (no phenol red)+10% FBS with penicillin-streptomycin-glutamine. 5 μL of cells were dispensed into 1536 well white solid bottom, tissue culture treated plates (5500 cells/well), and incubated for 48 hours at 37° C. 50 nL test compound was transferred into the assay plates containing HaCaT cells using Pintool (GNF) and incubated for 2 hours. […] The plates were incubated overnight (20 hrs) at room temperature covered with metal lids. Plates were read on Pherastar (BMG Labtech) for HTRF (665 nm/620 nm).

Sequence of LATS1 (O95835 whole entry, looked up): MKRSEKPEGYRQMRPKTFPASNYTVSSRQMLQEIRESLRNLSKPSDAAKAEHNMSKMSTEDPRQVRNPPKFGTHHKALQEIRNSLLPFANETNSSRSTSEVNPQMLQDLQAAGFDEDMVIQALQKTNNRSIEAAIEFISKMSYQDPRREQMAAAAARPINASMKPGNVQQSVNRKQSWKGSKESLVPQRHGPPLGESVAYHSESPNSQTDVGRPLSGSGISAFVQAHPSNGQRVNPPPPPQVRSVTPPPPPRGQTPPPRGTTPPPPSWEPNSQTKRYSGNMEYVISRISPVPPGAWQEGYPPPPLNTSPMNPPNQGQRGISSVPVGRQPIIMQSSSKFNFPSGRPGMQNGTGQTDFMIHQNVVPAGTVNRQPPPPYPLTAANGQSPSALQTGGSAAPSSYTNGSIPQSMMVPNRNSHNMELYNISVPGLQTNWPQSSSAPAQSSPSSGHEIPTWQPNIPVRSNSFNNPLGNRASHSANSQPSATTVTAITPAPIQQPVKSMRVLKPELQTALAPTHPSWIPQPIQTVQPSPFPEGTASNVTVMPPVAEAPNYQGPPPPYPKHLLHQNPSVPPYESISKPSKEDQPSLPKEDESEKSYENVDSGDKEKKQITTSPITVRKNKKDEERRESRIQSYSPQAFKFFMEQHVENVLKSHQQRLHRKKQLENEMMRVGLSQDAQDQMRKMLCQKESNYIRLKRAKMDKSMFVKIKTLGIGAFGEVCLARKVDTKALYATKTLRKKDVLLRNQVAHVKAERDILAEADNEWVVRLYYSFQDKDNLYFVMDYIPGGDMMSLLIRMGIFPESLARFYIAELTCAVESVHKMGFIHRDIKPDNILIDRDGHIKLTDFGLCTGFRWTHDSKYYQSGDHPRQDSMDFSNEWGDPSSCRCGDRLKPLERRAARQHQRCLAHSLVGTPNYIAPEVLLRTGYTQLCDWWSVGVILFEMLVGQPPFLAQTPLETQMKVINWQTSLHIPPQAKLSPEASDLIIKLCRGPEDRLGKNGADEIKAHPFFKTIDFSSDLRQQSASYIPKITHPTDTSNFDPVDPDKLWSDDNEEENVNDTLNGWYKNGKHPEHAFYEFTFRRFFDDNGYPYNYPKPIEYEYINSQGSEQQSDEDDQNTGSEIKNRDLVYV
Sequence of LATS1 (Q7L9L4 whole entry partner, looked up): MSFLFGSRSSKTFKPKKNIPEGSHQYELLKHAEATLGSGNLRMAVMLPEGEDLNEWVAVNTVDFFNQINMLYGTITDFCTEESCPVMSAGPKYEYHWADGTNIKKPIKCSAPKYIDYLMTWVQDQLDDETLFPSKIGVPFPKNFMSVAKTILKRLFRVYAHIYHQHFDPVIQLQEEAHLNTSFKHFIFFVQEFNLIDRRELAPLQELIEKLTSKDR

| SMILES | IC50 (LATS1) [µM] | IC50 [2] [µM] | EC50 [1] [µM] | IC50 [3] [µM] |
| --- | --- | --- | --- | --- |
| CC1(Nc2nc(-c3cncs3)nc3cnccc23)CC1 [Example 149, N-(1-methylcyclopropyl)-2-(1,3-thiazol-5-yl)pyrido[3,4-d]pyrimidin-4-amine] | 0.171 |  | > 20 | > 10 |
| Cc1noc(C)c1-c1nc(NC2(C)CC2)c2ccncc2n1 [Example 153, 2-(dimethyl-1,2-oxazol-4-yl)-N-(1-methylcyclopropyl)pyrido[3,4-d]pyrimidin-4-amine] | > 5 |  | > 20 | > 10 |
| CC1(Nc2nc(-c3cn[nH]c3)nc3cnccc23)CCC1 [Example 158, N-(1-methylcyclobutyl)-2-(1H-pyrazol-4-yl)pyrido[3,4-d]pyrimidin-4-amine] | 0.008 |  | 6.29 | 11.2 |
| Cc1n[nH]c(C)c1-c1nc(NC(C)(C)CC(C)(C)O)c2ccncc2n1 [Example 160, 4-{[2-(3,5-dimethyl-1H-pyrazol-4-yl)pyrido[3,4-d]pyrimidin-4-yl]amino}-2,4-dimethylpentan-2-ol] | 0.024 |  | > 20 | 6.8 |
| CCCNc1nc(-c2c[nH]c3ncncc23)nc2cnccc12 [Example 161, 4 N-propyl-2-{7H-pyrrolo[2,3-d]pyrimidin-5-yl}pyrido[3,4-d]pyrimidin-4-amine] | 0.025 |  | > 20 | > 100 |
| CC1(Nc2nc(-c3c[nH]nn3)nc3cnccc23)CC1 [Example 180, N-(1-methylcyclopropyl)-2-(1H-1,2,3-triazol-4-yl)pyrido[3,4-d]pyrimidin-4-amine] | 0.322 |  | > 20 | > 10 |
| FC(F)(F)C1(Nc2nc(-c3cn[nH]c3)nc3cnccc23)CC1 [Example 188, 2-(1H-pyrazol-4-yl)-N-[1-(trifluoromethyl)cyclopropyl]pyrido[3,4-d]pyrimidin-4-amine] | 0.017 |  | 12 | > 100 |
| OCC1(Nc2nc(-c3cn[nH]c3)nc3cnccc23)CC1 [Example 192, (1-{[2-(1H-pyrazol-4-yl)pyrido[3,4-d]pyrimidin-4-yl]amino}cyclopropyl)methanol] | 0.201 |  | > 20 | > 10 |
| Cc1nccc2c(NC3(C)CC3)nc(-c3ccncc3)nc12 [Example 199, 8-methyl-N-(1-methylcyclopropyl)-2-(pyridin-4-yl)pyrido[3,4-d]pyrimidin-4-amine] | 0.001 | 3.2 | 9.1 |  |
| CC1(Nc2nc(-c3ccncc3)nc3cncc(Cl)c23)CC1 [Example 252, 5-chloro-N-(1-methylcyclopropyl)-2-(pyridin-4-yl)pyrido[3,4-d]pyrimidin-4-amine] | 0.002 |  | > 10 | 6.98 |
| CC(C)(C)Nc1nc(-c2ccncc2)nc2cncc(NCCOCCO)c12 [Example 253] | 0.085 |  | > 20 | 16.7 |
| COCC(C)(C)Nc1cc(-c2ccncc2)nc2cnccc12 [Example 258, N-(1-methoxy-2-methylpropan-2-yl)-2-(pyridin-4-yl)-1,7-naphthyridin-4-amine] | 0.023 | > 10 | 9.92 |  |
| CCCNc1cc(-c2ccncc2)nc2cnccc12 [Example 268, N-propyl-2-(pyridin-4-yl)-1,7-naphthyridin-4-amine] | 0.018 | > 10 | > 20 |  |
| CC(C)(C)Nc1cc(-c2ccnc(N)c2)nc2cnccc12 [Example 274, 2-(2-aminopyridin-4-yl)-N-tert-butyl-1,7-naphthyridin-4-amine] | 0.013 | > 10 | 17.3 |  |
| CCN(CC)c1cc(-c2ccncc2F)nc2cnccc12 [Example 275, N,N-diethyl-2-(3-fluoropyridin-4-yl)-1,7-naphthyridin-4-amine] | 0.011 | > 10 | 15.1 |  |
| CC(C)(CO)Nc1cc(-c2ccncc2F)nc2cnccc12 [Example 282, 2-{[2-(3-fluoropyridin-4-yl)-1,7-naphthyridin-4-yl]amino}-2-methylpropan-1-ol] | 0.01 |  | 11.3 | 8.27 |
| CC(C)(CN1CCOCC1)Nc1cc(-c2ccncc2F)nc2cnccc12 [Example 284, 2-(3-fluoropyridin-4-yl)-N-[2-methyl-1-(morpholin-4-yl)propan-2-yl]-1,7-naphthyridin-4-amine] | 0.03 |  | > 41.2 | 46.5 |

Further lines, with some results ahead:

| IC50 (LATS1) [µM] | IC50 [2] [µM] | SMILES | EC50 [1] [µM] | IC50 [3] [µM] |
| --- | --- | --- | --- | --- |
| 0.039 | > 10 | CC(C)(CNCC(=O)O)Nc1nc(-c2ccncc2)nc2cnccc12 [Example 30, 2-[(2-methyl-2-{[2-(pyridin-4-yl)pyrido[3,4-d]pyrimidin-4-yl]amino}propyl)amino]acetic acid] | > 20 |  |
| 0.006 |  | CCCNc1nc(-n2ccc3ncccc32)nc2cnccc12 [Example 156, N-propyl-2-{1H-pyrrolo[3,2-b]pyridin-1-yl}pyrido[3,4-d]pyrimidin-4-amine] | 90.1 | > 100 |
| 0.016 |  | CC1(Nc2nc(-c3ccncn3)nc3cnccc23)CC1 [Example 159, N-(1-methylcyclopropyl)-2-(pyrimidin-4-yl)pyrido[3,4-d]pyrimidin-4-amine] | > 20 | > 10 |
| 0.028 |  | Cc1[nH]ncc1-c1nc(N[C@H](C)c2ccccc2)c2ccncc2n1 [Example 168, 2-(5-methyl-1H-pyrazol-4-yl)-N-[(1R)-1-phenylethyl]pyrido[3,4-d]pyrimidin-4-amine] | 11.6 | 26.5 |
| 1.28 |  | C[C@@H](Nc1nc(-c2ccnn2C)nc2cnccc12)c1ccccc1 [Example 170, 2-(1-methyl-1H-pyrazol-5-yl)-N-[(1R)-1-phenylethyl]pyrido[3,4-d]pyrimidin-4-amine] | > 20 | > 10 |
| 0.017 |  | Cn1nccc1-c1nc(NC2(C)CC2)c2ccncc2n1 [Example 172, 2-(1-methyl-1H-pyrazol-5-yl)-N-(1-methylcyclopropyl)pyrido[3,4-d]pyrimidin-4-amine] | > 20 | > 10 |
| 0.197 |  | CC1(Nc2nc(-c3ccnnc3)nc3cnccc23)CC1 [Example 174, N-(1-methylcyclopropyl)-2-(pyridazin-4-yl)pyrido[3,4-d]pyrimidin-4-amine] | > 20 | > 10 |
| 0.324 |  | CC1(Nc2nc(-c3cnco3)nc3cnccc23)CC1 [Example 175, N-(1-methylcyclopropyl)-2-(1,3-oxazol-5-yl)pyrido[3,4-d]pyrimidin-4-amine] | > 20 | > 10 |
| 0.002 |  | CC1(Nc2nc(-n3ccc4ncccc43)nc3cnccc23)CC1 [Example 179, N-(1-methylcyclopropyl)-2-{1H-pyrrolo[3,2-b]pyridin-1-yl}pyrido[3,4-d]pyrimidin-4-amine] | > 20 | > 10 |
| 0.016 |  | Cn1nccc1-c1nc(NC2(CO)CCC2)c2ccncc2n1 [Example 187, (1-{[2-(1-methyl-1H-pyrazol-5-yl)pyrido[3,4-d]pyrimidin-4-yl]amino}cyclobutyl)methanol] | > 20 | > 100 |
| 0.005 |  | CC1(Nc2nc(-c3cn[nH]c3)nc3cnccc23)CC1 [Example 194, N-(1-methylcyclopropyl)-2-(1H-pyrazol-4-yl)pyrido[3,4-d]pyrimidin-4-amine] | 4.24 | 11.3 |
| > 2.5 |  | Cn1cc(-c2nc(NC3(C)CC3)c3ccncc3n2)cn1 [Example 196, 2-(1-methyl-1H-pyrazol-4-yl)-N-(1-methylcyclopropyl)pyrido[3,4-d]pyrimidin-4-amine] | > 20 | > 10 |
| 0.022 | > 10 | CC[C@@H](C)Nc1cc(-c2ccncc2)nc2cnccc12 [Example 257, N-[(2R)-butan-2-yl]-2-(pyridin-4-yl)-1,7-naphthyridin-4-amine] | > 20 |  |
